The values that follow come from paper PMC11378339, “Design, synthesis, and in vitro and in silico study of 1-benzyl-indole hybrid thiosemicarbazones as competitive tyrosinase inhibitors” (RSC Advances, 2024).

For orientation: IC50 means the concentration at which inhibition is half-maximal. What is called melting point is the temperature of the solid-liquid transition. As a reminder, the Ki is the dissociation constant of the complex between target and ligand, obtained from inhibition or displacement. Read a low Ki as a stronger hold on the target.

Data set [1] relates to mushroom tyrosinase. Description: Tyrosinase inhibition assay (96-well, L-DOPA substrate, dopachrome at 480 nm). Type of data set: biochemical. To be noted: for IC50: mean ± SEM, triplicate, substrate L-DOPA. The protocol: Using a spectrophotometer microplate reader, the 96-well plate tyrosinase inhibition experiment was performed by Masamoto et al.'s protocol.[65,66] […] Then, add 60 μL of phosphate buffer and 10 μL of mushroom tyrosinase (30 U mL^−1 in phosphate buffer) to the reaction mixture incubated for 10 min at 25 °C. Following incubation, 20 μL of substrate L-DOPA (0.5 mM) in phosphate buffer was added. The end product dopachrome formation was measured at 480 nm for continues 10 min with one min interval time using 96-well ELISA plate reader (Bio-Rad xMARK microplate spectrophotometer). All of the experiments were carried out in triplicate to account for potential mistakes, and the mean findings were reported in SEM. All of the in vitro experiment results, including % inhibition and IC50 values, were examined using EZ-Fit, an enzyme kinetics tool that fits curves (Perrella Scientific Inc., Amherst, USA).
The % inhibition was computed using the formula provided below.1 [drawing 39]
EZ-FIT (Perrella Scientific, Inc., USA) was used to calculate each tested compound's IC50 value. All the experiments were performed in triplicate to reduce predicted errors, and differences in the outcomes are expressed as Standard Error of Mean values (SEM).2 [drawing 40]

In data set [2] the target is mushroom tyrosinase. Briefly: Kinetic analysis of tyrosinase inhibition (Lineweaver-Burk, Dixon plot). Type of data set: biochemical. The settings on record: substrate L-Dopa 0.1-0.8 mM. The procedure: Four distinct doses of the substrate L-Dopa 0.1, 0.2, 0.4, and 0.8 mM were used in the kinetic analysis. The in vitro mechanistic study was carried out by following a similar inhibitory procedure with a similar experimental temperature and time period. […]

In turn, `S=C(NCc1ccc(Cl)cc1)N/N=C/c1cn(Cc2ccccc2)c2ccccc12` [Compound 5e, (E)-2-[(1-benzyl-1H-indol-3-yl)methylene]-N-(4-chlorobenzyl)hydrazinecarbothioamide] showed a melting point of 225 to 227 °C. Also, in the data set with mushroom tyrosinase [1], the “Percent inhibition (0.5 mM)” value is reported as 84.73% and inhibition was half-maximal at 33.6 ± 1.1 µM (IC50).
In the case of `Cc1ccc(CNC(=S)N/N=C/c2cn(Cc3ccccc3)c3ccccc23)cc1` [Compound 5k, (E)-2-[(1-benzyl-1H-indol-3-yl)methylene]-N-(4-methylbenzyl)hydrazinecarbothioamide], the melting point was in the range of 223 to 225 °C. For the same compound, at mushroom tyrosinase [2], affinity was put at a Ki of 10.2 ± 0.006 µM and the type of inhibition entry was “competitive”. For the same compound, in the data set on mushroom tyrosinase [1], the “Percent inhibition (0.5 mM)” value is reported as 90.84% and the IC50 was determined as 12.4 ± 0.26 µM.
Turning to `Cc1ccc(NC(=S)N/N=C/c2cn(Cc3ccccc3)c3ccccc23)cc1` [Compound 5n, (E)-2-[(1-benzyl-1H-indol-3-yl)methylene]-N-(p-tolyl)hydrazinecarbothioamide], the melting point was in the range of 221 to 223 °C. For the same compound, in the data set with mushroom tyrosinase [1], the “Percent inhibition (0.5 mM)” value is on record as 86.54% and the concentration for half-maximal inhibition (IC50) was 26.1 ± 0.47 µM.
For `S=C(N/N=C/c1cn(Cc2ccccc2)c2ccccc12)Nc1ccc(Br)cc1` [Compound 5j, (E)-2-[(1-benzyl-1H-indol-3-yl)methylene]-N-(4-bromophenyl)hydrazinecarbothioamide], in the data set on mushroom tyrosinase [1], the “Percent inhibition (0.5 mM)” value is 84.19% and the IC50 is 26.8 ± 0.29 µM.
For `S=C(N/N=C/c1cn(Cc2ccccc2)c2ccccc12)Nc1ccccc1` [Compound 5g, (E)-2-[(1-benzyl-1H-indol-3-yl)methylene]-N-phenylhydrazinecarbothioamide], in the data set on mushroom tyrosinase [1], the “Percent inhibition (0.5 mM)” value is recorded as 81.47% and the IC50 was found to be 38.3 ± 1.34 µM.
For `COc1ccc(NC(=S)N/N=C/c2cn(Cc3ccccc3)c3ccccc23)cc1` [Compound 5a, (E)-2-[(1-benzyl-1H-indol-3-yl)methylene]-N-(4-methoxyphenyl)hydrazinecarbothioamide], in that order: 87.15% and 24.2 ± 0.38 µM.
Turning to `O=[N+]([O-])c1cccc(NC(=S)N/N=C/c2cn(Cc3ccccc3)c3ccccc23)c1` [Compound 5o, (E)-2-[(1-benzyl-1H-indol-3-yl)methylene]-N-(3-nitrophenyl)hydrazinecarbothioamide], in the data set with mushroom tyrosinase [1], the “Percent inhibition (0.5 mM)” value was determined as 91.34% and the IC50 came to 17.1 ± 0.28 µM.
Taken in the same sequence, the figures for `Cc1cccc(C)c1NC(=S)N/N=C/c1cn(Cc2ccccc2)c2ccccc12` [Compound 5c, (E)-2-[(1-benzyl-1H-indol-3-yl)methylene]-N-(2,6-dimethylphenyl)hydrazinecarbo thioamide] were 85.66% and 27.4 ± 0.6 µM.
Regarding `CNC(=S)N/N=C/c1cn(Cc2ccccc2)c2ccccc12` [Compound 5p, (E)-2-[(1-benzyl-1H-indol-3-yl)methylene]-N-methylhydrazinecarbothioamide], the melting point was in the range of 220 to 221 °C. Further, the “Percent inhibition (0.5 mM)” value in the data set with mushroom tyrosinase [1] is reported as 46.20%.
In the case of `Fc1ccc(NC(=S)N/N=C/c2cn(Cc3ccccc3)c3ccccc23)cc1` [Compound 5d, (E)-2-[(1-benzyl-1H-indol-3-yl)methylene]-N-(4-fluorophenyl)hydrazinecarbothioamide], in the data set with mushroom tyrosinase [1], the “Percent inhibition (0.5 mM)” value came out at 90.47% and the IC50 is 16.8 ± 0.38 µM.
Take `S=C(N/N=C/c1cn(Cc2ccccc2)c2ccccc12)Nc1cccc(Cl)c1Cl` [Compound 5f, (E)-2-[(1-benzyl-1H-indol-3-yl)methylene]-N-(2,3-dichlorophenyl)hydrazinecarbo thioamide]: the melting point lay in the range of 213 to 215 °C. In the data set on mushroom tyrosinase [1], the “Percent inhibition (0.5 mM)” value was 90.83% and the IC50 turned out to be 15.3 ± 0.37 µM.
`Cc1cc(C)cc(NC(=S)N/N=C/c2cn(Cc3ccccc3)c3ccccc23)c1` [Compound 5m, (E)-2-[(1-benzyl-1H-indol-3-yl)methylene]-N-(3,5-dimethylphenyl)hydrazine carbo thioamide] yielded a melting point of 221 to 223 °C. Moreover, in the data set on mushroom tyrosinase [1], the “Percent inhibition (0.5 mM)” value is given as 76.35% and the IC50 was determined as 47.2 ± 1.27 µM.
Taken in the same sequence, the figures for `O=[N+]([O-])c1ccc(NC(=S)N/N=C/c2cn(Cc3ccccc3)c3ccccc23)cc1` [Compound 5q, (E)-2-[(1-benzyl-1H-indol-3-yl)methylene]-N-(4-nitrophenyl)hydrazinecarbothioamide] were 223 to 225 °C, 91.53% and 15.3 ± 0.3 µM.
Taken in the same sequence, the figures for `S=C(NCCc1ccccc1)N/N=C/c1cn(Cc2ccccc2)c2ccccc12` [Compound 5b, (E)-2-[(1-benzyl-1H-indol-3-yl)methylene]-N-phenethylhydrazinecarbothioamide] were 198 to 201 °C, 78.35% and 45.4 ± 0.75 µM.
For `Cc1ccc(NC(=S)N/N=C/c2cn(Cc3ccccc3)c3ccccc23)c(C)c1` [Compound 5h, (E)-2-[(1-benzyl-1H-indol-3-yl)methylene]-N-(2,4-dimethylphenyl)hydrazinecarbo thioamide], in that order: 180 to 182 °C, 83.76% and 29.7 ± 0.72 µM.
For `S=C(NCc1ccccc1)N/N=C/c1cn(Cc2ccccc2)c2ccccc12` [Compound 5i, (E)-N-benzyl-2-[(1-benzyl-1H-indol-3-yl)methylene]hydrazinecarbothioamide], the melting point was in the range of 193 to 195 °C. In the data set on mushroom tyrosinase [1], the “Percent inhibition (0.5 mM)” value is recorded as 82.71% and the IC50 stood at 36.7 ± 1.48 µM.
`COc1cccc(NC(=S)N/N=C/c2cn(Cc3ccccc3)c3ccccc23)c1` [Compound 5l, (E)-2-[(1-benzyl-1H-indol-3-yl)methylene]-N-(3-methoxyphenyl)hydrazinecarbothioamide]: in the data set on mushroom tyrosinase [1], the “Percent inhibition (0.5 mM)” value is 84.39% and the 50% inhibitory concentration (IC50) is 31.6 ± 1.26 µM.
`S=C(N/N=C/c1cn(Cc2ccccc2)c2ccccc12)Nc1cccc2ccccc12` [Compound 5r, (E)-2-[(1-benzyl-1H-indol-3-yl)methylene]-N-(naphthalen-1-yl)hydrazinecarbothioamide] yielded a melting point of 199 to 201 °C. For the same compound, in the data set with mushroom tyrosinase [1], the “Percent inhibition (0.5 mM)” value was 77.86% and the IC50 is 34.6 ± 0.81 µM.
